{"source": "patent US6838592B1", "about": "“Methods for the identification of compounds for the treatment of alzheimer's disease” (Nathan S. Kline Institute for Psychiatric Research, priority 1999, dated 2005)", "key": {"lipofuscin": {"tested_on": "lipofuscin", "assay": "Lipofuscin autofluorescence in fixed brain tissue after intraventricular leupeptin infusion", "assay_type": "in vivo, mice", "details": "5 mg/mL leupeptin, four weeks, vs vehicle (20 mM HEPES)"}, "tau": {"tested_on": "tau", "assay": "Western blot analysis of tau in brain of leupeptin-infused mice", "assay_type": "in vivo", "description": "(§1) Several studies have recently raised the possibility that abnormal forms of tau is metabolized in lysosomes. […] There are numerous assays for tau known in the art. For example, the processing of tau by immunocytochemistry and Western blot analysis is performed using an antibody that recognizes both phosphorylated and non-phosphorylated forms (Adamec et al., Brain Res. 757:93-101, 1997). Abnormal tau conformation and hyperphosphorylated tau is examined using suitable monoclonal antibodies. (e.g., MC1 (Jicha et al., J. Neurosci. Res. 48:128-132) and AT8 (Innogenetics, Gent, Belgium)). EM analysis can be performed to characterize cytoskeletal changes in neurons (Nixon, Bioessays 20:798-807, 1998). Alternatively, the magnitude of neurodegeneration in the mice can be determined by Nissl stain."}, "cortical mantle": {"tested_on": "cortical mantle", "assay": "Nissl staining and cortical mantle thickness in PS1M146L/APPswe transgenic and non-transgenic mice infused with leupeptin", "assay_type": "in vivo", "description": "as §1\nAs a second example of the usefulness of inducing lysosomal system dysfunction by protease inhibitor infusion, we treated PS1M146L/APPswe transgenic mice, an established model of AD-like pathology (Duff et al., Nature 383:710-713, 1996). Infusion pumps containing 5 mg/mL leupeptin were implanted into PS1M146L/APPswe transgenic mice at 1 year of age. Animals were sacrificed 4 weeks later.\nWe confirmed this observation by measuring the thickness of the cortical mantle in these mice (FIG. 15). […] One current limitation of the existing mouse models of AD is their failure to show substantial neuronal atrophy and/or neuronal cell loss, key features of the disease in humans."}, "Aβ": {"tested_on": "Aβ", "assay": "Total Aβ by ELISA after formic acid extraction in PS1M146L/APPswe transgenic mice infused with protease inhibitor", "assay_type": "in vivo", "details": "infusion from 8 to 12 weeks of age", "description": "We also performed protease inhibitor infusion experiments in PS1M146L/APPswe transgenic mice. Infusion pumps containing either 2 mg/mL pepstatin or 10 mg/mL leupeptin were implanted into PS1M146L/APPswe transgenic mice at 8 weeks of age. Animals were sacrificed at 12 weeks of age, and total Aβ levels were determined by ELISA following formic acid extraction (FIG. 10A). […] Leupeptin treatment, on the other hand, increased total Aβ by 1.8 times when compared to untreated mice. We have additionally measured the activity of Cat D in the brains of untreated, pepstatin-treated, or leupeptin-treated mice (FIG. 10B).\nThe Aβ sandwich ELISA is generally known to those skilled in the art, with both Aβ ELISA kits (Biosource International, Camavillo, Calif.) and appropriate antibodies (e.g., 4G8, GE10; Seneteck, PLC, Napa, Calif.) available commercially. For the Aβ sandwich ELISA, Nunc-Immuno Plates (Nunc A/S Roskilde, Denmark) were coated overnight at […] using antibodies specific for Aβ40 or Aβ42 in 100 mM bicarbonate buffer, pH 9.6. […] Aβ was detected by incubating for 4 hours at room temperature with an HPR-conjugated anti-Aβ antibody in 20 mM Na phosphate, 2 mM EDTA, 400 mM NaCl, 1.0% BSA. ELISA plates were developed using a color reaction (ABTS Peroxidase Substrate System, Kirkegaard & Perry, Gaithersburg, Md.) and the OD450 read."}, "Cat D": {"target": "T1, Cat D (Mus musculus, UniProt P18242)", "T1 construct": "from tissue; host or cells: mouse brain (sections and hemi-brain homogenates)", "T1 sequence (P18242 65-410)": "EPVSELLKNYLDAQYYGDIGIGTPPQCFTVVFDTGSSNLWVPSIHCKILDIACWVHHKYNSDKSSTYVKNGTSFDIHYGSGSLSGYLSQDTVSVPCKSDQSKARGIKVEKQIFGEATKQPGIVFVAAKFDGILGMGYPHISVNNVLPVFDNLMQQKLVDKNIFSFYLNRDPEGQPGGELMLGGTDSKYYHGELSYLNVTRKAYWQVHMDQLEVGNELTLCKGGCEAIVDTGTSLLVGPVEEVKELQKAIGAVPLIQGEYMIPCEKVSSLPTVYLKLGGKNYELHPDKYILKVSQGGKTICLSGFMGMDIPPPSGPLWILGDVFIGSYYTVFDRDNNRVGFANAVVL", "assay": "Cat D activity in brains of PS1M146L/APPswe transgenic mice infused with protease inhibitor", "assay_type": "in vivo", "details": "2 mg/mL pepstatin or 10 mg/mL leupeptin, vs untreated", "description": "To administer the candidate compounds in the presence or absence of inhibitor(s), eight week old mice are anesthetized with pentobarbital (40-50 mg/kg i.p.) and placed in a stereotaxic apparatus with mouse adapter (David Kopf Instruments, Tujunga, Calif.). After sacrifice, placement of the probe into the lateral ventricle is confirmed and one hemi-brain immersion-fixed and the other hemi-brain homogenized for protease assays. We determine the efficacy of the candidate compound by assaying the activity of proteases in brain homogenates (e.g., Cat B, Cat L, Cat D, and trypsin (Brunk et al., Free Radic. Biol. Med. 19:813-822, 1995; Marotta and Nixon, J. Neurochem. 43:507-516, 1984; Koshikawa et al., Am. J. Pathol. 153:937-944, 1998); see, for example, Cat D shown in FIG. 11F). […] Lipofuscin granules are defined at the EM level as having a single layer of membrane and a bipartite structure consisting of electron lucent lipoid material and electron dense material (Cataldo and Nixon, Ann. N.Y. Acad. Sci. 679: 87-109, 1993).\nWe also performed protease inhibitor infusion experiments in PS1M146L/APPswe transgenic mice. […] Animals were sacrificed at 12 weeks of age, and total Aβ levels were determined by ELISA following formic acid extraction (FIG. 10A). […] We have additionally measured the activity of Cat D in the brains of untreated, pepstatin-treated, or leupeptin-treated mice (FIG. 10B)."}, "[1]": {"tested_on": "lipofuscin-like material in neurons", "details": "chronic inhibition (7+days) by infusion; cited from earlier work"}}, "note": "“Also recorded” adds a separate entry of the source. Non-standard residues stand in square brackets, D forms with d. Residues, ends and D or L forms follow the SMILES beside them. *: point of attachment. Sta = CC(C)C[C@H](N)[C@@H](O)CC(=O)O; Isovaleryl = CC(C)CC(=O)*", "data": [{"molecule": "CC(=O)N[C@@H](CC(C)C)C(=O)N[C@@H](CC(C)C)C(=O)N[C@H](C=O)CCCNC(=N)N", "note": "[leupeptin]", "values": [{"measurement": "lipofuscin autofluorescence", "setting": "lipofuscin", "value": "increase in lipofuscin autofluorescence; also recorded: lipotuscin autofluorescence in sections of leupeptin-treated but not vehicle-treated brains"}, {"measurement": "lower molecular weight forms of tau (Mr~30-34 kDa) by Western blot", "setting": "tau", "value": "increase in the lower molecular weight forms of tau"}, {"measurement": "reduction of thickness of the cortex", "setting": "cortical mantle; PS1M146L/APPswe mouse, 5 mg/mL leupeptin, 4 weeks", "value": "over 20%"}, {"measurement": "Nissl staining of cortex", "setting": "cortical mantle; PSM146L/APPswe mouse, 5 mg/mL leupeptin, 4 weeks, vs non-transgenic littermate also infused with leupeptin", "value": "substantial cortical neuronal hypotrophy, chromatolysis and possibly loss of neurons"}, {"measurement": "thickness of the cortical mantle", "setting": "cortical mantle; non-transgenic mouse, leupeptin vs vehicle", "value": "small decrease"}, {"measurement": "total Aβ increase compared to untreated mice", "setting": "Aβ; 10 mg/mL leupeptin", "value": 1.8, "unit": "times"}, {"measurement": "activity of Cat D in the brain", "setting": "Cat D", "value": "increased Cat D activity"}, {"measurement": "accumulation of lipofuscin-like material in neurons", "setting": "[1]", "value": "results in accumulation of lipofuscin-like material in neurons"}]}, {"molecule": "CCN(CC)CCCC(C)Nc1ccnc2cc(Cl)ccc12", "note": "(stereo not drawn) [chloroquine]", "values": [{"measurement": "accumulation of lipofuscin-like material in neurons", "setting": "[1]", "value": "results in accumulation of lipofuscin-like material in neurons"}]}, {"molecule": "CC(C)CC(=O)N[C@H](C(=O)N[C@H](C(=O)N[C@@H](CC(C)C)[C@@H](O)CC(=O)N[C@@H](C)C(=O)N[C@@H](CC(C)C)[C@@H](O)CC(=O)O)C(C)C)C(C)C", "note": "[pepstatin] (Isovaleryl-VV[Sta]A[Sta]-OH)", "values": [{"measurement": "total Aβ level relative to untreated mice", "setting": "Aβ; 2 mg/mL pepstatin", "value": "reduced to half the level"}, {"measurement": "activity of Cat D in the brain", "setting": "Cat D", "value": "reduced activity of Cat D"}]}, {"molecule": "aprotinin", "values": [{"measurement": "accumulation of lipofuscin-like material in neurons", "setting": "[1]", "value": "does not"}]}]}
